The supplement of paper PMC6315032

Assays:
Assay in all cases: apparent dissociation constant (pKDapp, Kinobeads competition, Cheng-Prusoff corrected) (-log10 M); higher = tighter binding
CAMK2B = CAMK2B (UniProt Q13554); conditions: affinity matrix / lysate: Kinobeads, mixed HEK293/K-562/placenta lysate
PKN3 = PKN3 (UniProt Q6P5Z2); conditions: affinity matrix / lysate: Kinobeads, mixed HEK293/K-562/placenta lysate
ERN1 = ERN1 (UniProt O75460); conditions: affinity matrix / lysate: Kinobeads, mixed HEK293/K-562/placenta lysate
PIK3C2B = PIK3C2B (UniProt O00750)
STK17A = STK17A (UniProt Q9UEE5); conditions: affinity matrix / lysate: Kinobeads, mixed HEK293/K-562/placenta lysate
MAP3K2 = MAP3K2 (UniProt Q9Y2U5); conditions: affinity matrix / lysate: Kinobeads, mixed HEK293/K-562/placenta lysate
STK16 = STK16 (UniProt O75716); conditions: affinity matrix / lysate: Kinobeads, mixed HEK293/K-562/placenta lysate
SYK = SYK (UniProt P43405); conditions: affinity matrix / lysate: Kinobeads, mixed HEK293/K-562/placenta lysate
ATM = ATM (UniProt Q13315); conditions: affinity matrix / lysate: Lipid Kinobeads, mixed HeLa/Jurkat/K-562 lysate
PRKD3 = PRKD3 (UniProt O94806); conditions: affinity matrix / lysate: Kinobeads, mixed HEK293/K-562/placenta lysate
MAPK1 = MAPK1 (UniProt P28482); conditions: affinity matrix / lysate: Kinobeads, mixed HEK293/K-562/placenta lysate
DDR1 = DDR1 (UniProt Q08345); conditions: affinity matrix / lysate: Kinobeads, mixed HEK293/K-562/placenta lysate
MAP2K3 = MAP2K3 (UniProt P46734); conditions: affinity matrix / lysate: Kinobeads, mixed HEK293/K-562/placenta lysate
MAP4K2 = MAP4K2 (UniProt Q12851); conditions: affinity matrix / lysate: Kinobeads, mixed HEK293/K-562/placenta lysate
SGK3 = SGK3 (UniProt Q96BR1); conditions: affinity matrix / lysate: Kinobeads, mixed HEK293/K-562/placenta lysate
TESK1 = TESK1 (UniProt Q15569); conditions: affinity matrix / lysate: Kinobeads, mixed HEK293/K-562/placenta lysate
MERTK = MERTK (UniProt Q12866); conditions: affinity matrix / lysate: Kinobeads, mixed HEK293/K-562/placenta lysate
MAP3K4 = MAP3K4 (UniProt Q9Y6R4); conditions: affinity matrix / lysate: Kinobeads, mixed HEK293/K-562/placenta lysate
MARK3 = MARK3 (UniProt P27448); conditions: affinity matrix / lysate: Kinobeads, mixed HEK293/K-562/placenta lysate
MAST3 = MAST3 (UniProt O60307); conditions: affinity matrix / lysate: Kinobeads, mixed HEK293/K-562/placenta lysate
PIP4K2C = PIP4K2C (UniProt Q8TBX8); conditions: affinity matrix / lysate: Kinobeads, mixed HEK293/K-562/placenta lysate
STK33 = STK33 (UniProt Q9BYT3); conditions: affinity matrix / lysate: Kinobeads, mixed HEK293/K-562/placenta lysate
PRKX = PRKX (UniProt P51817); conditions: affinity matrix / lysate: Kinobeads, mixed HEK293/K-562/placenta lysate
PRKG1 = PRKG1 (UniProt Q13976); conditions: affinity matrix / lysate: Kinobeads, mixed HEK293/K-562/placenta lysate
INSR = INSR (UniProt P06213); conditions: affinity matrix / lysate: Kinobeads, mixed HEK293/K-562/placenta lysate
RPS6KB1 = RPS6KB1 (UniProt P23443); conditions: affinity matrix / lysate: Kinobeads, mixed HEK293/K-562/placenta lysate
DAPK1 = DAPK1 (UniProt P53355); conditions: affinity matrix / lysate: Kinobeads, mixed HEK293/K-562/placenta lysate
BMPR2 = BMPR2 (UniProt Q13873); conditions: affinity matrix / lysate: Kinobeads, mixed HEK293/K-562/placenta lysate
EPHA6 = EPHA6 (UniProt Q9UF33); conditions: affinity matrix / lysate: Kinobeads, mixed HEK293/K-562/placenta lysate
PIK3R4 = PIK3R4 (UniProt Q99570); conditions: affinity matrix / lysate: Lipid Kinobeads, mixed HeLa/Jurkat/K-562 lysate
JAK2 = JAK2 (UniProt O60674); conditions: affinity matrix / lysate: Kinobeads, mixed HEK293/K-562/placenta lysate
PTK2 = PTK2 (UniProt Q05397); conditions: affinity matrix / lysate: Kinobeads, mixed HEK293/K-562/placenta lysate
TNK2 = TNK2 (UniProt Q07912); conditions: affinity matrix / lysate: Kinobeads, mixed HEK293/K-562/placenta lysate
[1] = affinity matrix / lysate: Lipid Kinobeads, mixed HeLa/Jurkat/K-562 lysate

Measured: apparent dissociation constant (-log10 M)

Sequence of PIK3C2B (O00750 whole entry): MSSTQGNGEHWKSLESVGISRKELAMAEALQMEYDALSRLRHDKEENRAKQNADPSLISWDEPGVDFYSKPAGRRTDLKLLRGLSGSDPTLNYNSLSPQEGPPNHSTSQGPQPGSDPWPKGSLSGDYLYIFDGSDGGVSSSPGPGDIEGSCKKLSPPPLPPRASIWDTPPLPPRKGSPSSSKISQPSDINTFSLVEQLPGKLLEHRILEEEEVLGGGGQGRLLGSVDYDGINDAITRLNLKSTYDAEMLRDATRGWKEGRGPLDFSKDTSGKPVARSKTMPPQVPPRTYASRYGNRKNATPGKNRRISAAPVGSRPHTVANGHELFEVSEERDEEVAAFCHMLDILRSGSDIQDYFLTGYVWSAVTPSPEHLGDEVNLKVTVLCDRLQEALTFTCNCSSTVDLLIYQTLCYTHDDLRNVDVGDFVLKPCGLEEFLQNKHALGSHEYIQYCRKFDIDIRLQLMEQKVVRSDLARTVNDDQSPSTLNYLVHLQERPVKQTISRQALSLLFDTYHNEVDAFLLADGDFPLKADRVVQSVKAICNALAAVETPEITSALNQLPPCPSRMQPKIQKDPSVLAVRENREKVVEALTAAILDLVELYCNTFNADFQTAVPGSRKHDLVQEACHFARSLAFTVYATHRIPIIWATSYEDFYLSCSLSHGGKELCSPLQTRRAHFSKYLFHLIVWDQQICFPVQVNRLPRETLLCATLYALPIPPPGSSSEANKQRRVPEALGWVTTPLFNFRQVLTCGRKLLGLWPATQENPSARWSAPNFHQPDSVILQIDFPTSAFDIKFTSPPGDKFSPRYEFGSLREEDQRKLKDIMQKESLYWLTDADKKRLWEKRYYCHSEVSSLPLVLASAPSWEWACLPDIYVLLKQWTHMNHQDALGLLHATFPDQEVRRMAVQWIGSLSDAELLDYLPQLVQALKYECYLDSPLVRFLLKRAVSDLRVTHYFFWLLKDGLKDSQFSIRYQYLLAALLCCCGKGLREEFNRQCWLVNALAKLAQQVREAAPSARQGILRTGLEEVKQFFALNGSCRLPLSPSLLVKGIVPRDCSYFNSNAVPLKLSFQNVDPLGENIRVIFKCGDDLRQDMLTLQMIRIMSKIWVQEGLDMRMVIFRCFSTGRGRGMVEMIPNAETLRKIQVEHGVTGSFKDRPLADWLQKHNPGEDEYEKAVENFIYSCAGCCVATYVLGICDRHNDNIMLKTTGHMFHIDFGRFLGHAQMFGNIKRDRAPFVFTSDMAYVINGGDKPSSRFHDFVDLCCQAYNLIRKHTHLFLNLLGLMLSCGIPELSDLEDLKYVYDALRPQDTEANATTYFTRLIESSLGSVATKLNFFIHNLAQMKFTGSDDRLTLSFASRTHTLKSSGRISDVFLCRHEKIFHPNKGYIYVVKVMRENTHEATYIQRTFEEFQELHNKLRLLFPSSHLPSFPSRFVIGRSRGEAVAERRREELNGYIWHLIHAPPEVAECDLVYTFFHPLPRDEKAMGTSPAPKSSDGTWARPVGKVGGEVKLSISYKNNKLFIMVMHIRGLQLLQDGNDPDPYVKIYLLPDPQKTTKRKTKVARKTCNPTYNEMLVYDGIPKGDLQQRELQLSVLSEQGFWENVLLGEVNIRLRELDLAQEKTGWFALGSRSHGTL
Sequence of STK16 (O75716 whole entry): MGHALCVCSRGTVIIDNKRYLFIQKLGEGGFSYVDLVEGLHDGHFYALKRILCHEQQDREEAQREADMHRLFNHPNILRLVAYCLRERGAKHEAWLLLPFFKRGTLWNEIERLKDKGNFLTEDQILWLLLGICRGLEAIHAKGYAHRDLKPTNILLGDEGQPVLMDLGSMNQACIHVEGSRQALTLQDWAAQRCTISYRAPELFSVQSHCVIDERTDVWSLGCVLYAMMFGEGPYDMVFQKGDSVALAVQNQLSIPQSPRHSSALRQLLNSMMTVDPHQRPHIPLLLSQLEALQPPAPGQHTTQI
Sequence of RPS6KB1 (P23443 whole entry, looked up): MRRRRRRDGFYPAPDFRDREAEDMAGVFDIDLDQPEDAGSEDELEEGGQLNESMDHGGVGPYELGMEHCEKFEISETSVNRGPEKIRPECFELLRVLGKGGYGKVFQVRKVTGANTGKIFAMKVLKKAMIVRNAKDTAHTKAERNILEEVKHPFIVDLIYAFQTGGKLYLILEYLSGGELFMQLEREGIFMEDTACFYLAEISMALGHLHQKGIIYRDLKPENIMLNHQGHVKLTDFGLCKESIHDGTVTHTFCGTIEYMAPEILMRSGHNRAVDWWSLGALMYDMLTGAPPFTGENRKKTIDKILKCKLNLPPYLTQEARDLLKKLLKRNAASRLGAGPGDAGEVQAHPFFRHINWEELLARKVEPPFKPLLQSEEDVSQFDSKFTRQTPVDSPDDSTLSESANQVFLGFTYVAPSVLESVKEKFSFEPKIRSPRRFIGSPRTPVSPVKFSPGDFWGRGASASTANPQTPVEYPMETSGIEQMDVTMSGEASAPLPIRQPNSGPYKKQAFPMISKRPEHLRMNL
Sequence of MERTK (Q12866 whole entry): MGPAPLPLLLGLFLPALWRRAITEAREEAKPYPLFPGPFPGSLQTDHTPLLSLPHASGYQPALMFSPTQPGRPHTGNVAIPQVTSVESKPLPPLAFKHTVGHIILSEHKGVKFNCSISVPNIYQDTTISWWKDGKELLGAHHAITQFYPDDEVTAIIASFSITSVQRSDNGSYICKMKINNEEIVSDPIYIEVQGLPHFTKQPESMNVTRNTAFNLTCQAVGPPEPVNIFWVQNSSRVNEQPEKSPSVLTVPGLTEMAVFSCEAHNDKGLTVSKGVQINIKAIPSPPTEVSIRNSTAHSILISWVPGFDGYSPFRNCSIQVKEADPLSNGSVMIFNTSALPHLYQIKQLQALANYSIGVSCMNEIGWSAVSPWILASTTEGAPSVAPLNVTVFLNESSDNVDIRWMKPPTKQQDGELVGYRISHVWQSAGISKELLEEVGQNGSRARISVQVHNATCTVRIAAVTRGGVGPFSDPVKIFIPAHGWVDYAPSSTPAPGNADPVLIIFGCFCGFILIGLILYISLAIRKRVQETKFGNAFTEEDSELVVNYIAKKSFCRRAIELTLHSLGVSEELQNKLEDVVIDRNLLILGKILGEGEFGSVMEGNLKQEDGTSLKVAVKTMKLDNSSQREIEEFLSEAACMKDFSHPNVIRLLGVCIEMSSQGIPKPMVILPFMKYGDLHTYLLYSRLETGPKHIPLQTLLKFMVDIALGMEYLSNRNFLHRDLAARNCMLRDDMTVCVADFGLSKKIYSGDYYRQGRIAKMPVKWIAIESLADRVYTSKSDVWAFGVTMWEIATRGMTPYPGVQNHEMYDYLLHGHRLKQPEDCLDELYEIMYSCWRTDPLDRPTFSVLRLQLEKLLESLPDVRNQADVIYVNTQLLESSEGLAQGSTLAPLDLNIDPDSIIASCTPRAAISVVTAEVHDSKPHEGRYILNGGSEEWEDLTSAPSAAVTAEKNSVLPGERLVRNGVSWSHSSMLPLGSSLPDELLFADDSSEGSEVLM
Sequence of MAP3K2 (Q9Y2U5 whole entry): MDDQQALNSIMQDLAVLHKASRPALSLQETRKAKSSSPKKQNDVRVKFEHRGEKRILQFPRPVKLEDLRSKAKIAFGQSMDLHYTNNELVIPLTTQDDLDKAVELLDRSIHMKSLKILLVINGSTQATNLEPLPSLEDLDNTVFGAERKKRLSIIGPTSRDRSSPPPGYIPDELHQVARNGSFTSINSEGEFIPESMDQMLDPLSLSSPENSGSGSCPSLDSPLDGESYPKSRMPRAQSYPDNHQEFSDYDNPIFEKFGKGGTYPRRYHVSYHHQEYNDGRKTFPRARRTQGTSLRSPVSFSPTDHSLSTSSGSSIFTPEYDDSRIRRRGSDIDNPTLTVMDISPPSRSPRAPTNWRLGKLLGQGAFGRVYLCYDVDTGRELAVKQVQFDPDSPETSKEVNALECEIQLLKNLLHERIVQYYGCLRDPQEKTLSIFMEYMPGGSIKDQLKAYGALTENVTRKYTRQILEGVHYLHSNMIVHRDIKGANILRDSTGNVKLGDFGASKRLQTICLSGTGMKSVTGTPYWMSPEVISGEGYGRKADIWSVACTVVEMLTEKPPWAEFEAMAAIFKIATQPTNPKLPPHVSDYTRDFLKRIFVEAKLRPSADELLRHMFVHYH
Sequence of MAP4K2 (Q12851 whole entry): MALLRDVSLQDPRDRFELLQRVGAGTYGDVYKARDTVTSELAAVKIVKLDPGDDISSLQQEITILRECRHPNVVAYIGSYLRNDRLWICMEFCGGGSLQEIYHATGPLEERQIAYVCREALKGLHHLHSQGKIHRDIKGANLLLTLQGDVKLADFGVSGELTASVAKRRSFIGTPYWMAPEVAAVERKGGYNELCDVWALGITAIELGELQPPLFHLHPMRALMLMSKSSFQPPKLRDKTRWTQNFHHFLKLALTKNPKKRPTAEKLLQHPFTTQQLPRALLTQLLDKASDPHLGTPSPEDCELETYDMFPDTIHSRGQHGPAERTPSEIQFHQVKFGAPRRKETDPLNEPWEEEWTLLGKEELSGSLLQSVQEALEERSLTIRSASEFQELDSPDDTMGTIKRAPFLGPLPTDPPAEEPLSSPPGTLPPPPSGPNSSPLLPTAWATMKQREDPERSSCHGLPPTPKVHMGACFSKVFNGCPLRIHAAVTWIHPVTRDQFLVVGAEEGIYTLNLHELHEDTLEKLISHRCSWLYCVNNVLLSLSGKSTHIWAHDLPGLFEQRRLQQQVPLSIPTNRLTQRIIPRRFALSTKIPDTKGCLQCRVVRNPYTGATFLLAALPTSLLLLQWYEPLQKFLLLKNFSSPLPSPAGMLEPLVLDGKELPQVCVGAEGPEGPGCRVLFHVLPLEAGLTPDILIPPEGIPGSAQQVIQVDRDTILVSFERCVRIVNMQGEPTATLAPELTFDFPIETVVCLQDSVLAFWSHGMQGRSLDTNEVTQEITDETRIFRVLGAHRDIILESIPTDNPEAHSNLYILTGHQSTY

COc1ccc(-c2ccc3c(N4CCOC[C@@H]4C)nc(N4CCOC[C@@H]4C)nc3n2)cc1CO [AZD8055]
< 6: CAMK2B | PKN3 | ERN1 | PIK3C2B; [1] | STK17A | MAP3K2 | STK16 | SYK | PRKD3 | MAPK1 | DDR1 | MAP2K3 | MAP4K2 | SGK3 | TESK1 | MERTK | MAP3K4 | MARK3 | MAST3 | PIP4K2C | STK33 | PRKX | PRKG1 | INSR | RPS6KB1 | DAPK1 | BMPR2 | EPHA6 | PIK3R4 | JAK2 | PTK2 | TNK2
6.36: ATM

CCNC(=O)Nc1ccc(-c2nc(N3CCOC[C@@H]3C)c3c(n2)C(C)(C)S(=O)(=O)C3)cc1 [CZ415]
< 6: CAMK2B | PKN3 | ERN1 | PIK3C2B; affinity matrix / lysate: Kinobeads, mixed HEK293/K-562/placenta lysate | PIK3C2B; [1] | STK17A | MAP3K2 | STK16 | SYK | ATM | PRKD3 | MAPK1 | DDR1 | MAP2K3 | MAP4K2 | SGK3 | TESK1 | MERTK | MAP3K4 | MARK3 | MAST3 | PIP4K2C | STK33 | PRKX | PRKG1 | INSR | RPS6KB1 | DAPK1 | BMPR2 | EPHA6 | PIK3R4 | JAK2 | PTK2 | TNK2
